Values quoted from earlier work as cited in PubChem BioAssay AID1259410 (Chemical Carcinogenesis Research Information System (CCRIS), 2018).

System: rodent tumor promotion studies, tumor incidence
Experiment: CCRIS tumor promotion studies
[1] = Carcinogen: 7,12-DIMETHYLBENZ[A]ANTHRACENE, 57-97-6, Doses [Carcinogen]: 100 NMOL ONCE, Doses [Promoter]: 0, 20 NMOL 2/WK FOR 24 WK BEGINNING 1 WK POST CARCINOGEN DOSE (STUDY DURATION: 25 WK), Route [Carcinogen]: DERMAL, Route [Promoter]: DERMAL, Species: MOUSE, Strain/Sex: NMRI/FEMALE

Oc1ccccc1O
outcome (Carcinogen: DIETHYLNITROSAMINE, 55-18-5, N-METHYL-N-NITROSOUREA, 684-93-5, 1,2-DIMETHYLHYDRAZINE, 540-73-8, N-BUTYL-N-(4-HYDRO, Carcinogen: DIETHYLNITROSAMINE, 55-18-5, N-METHYL-N-NITROSOUREA, 684-93-5, 1,2-DIMETHYLHYDRAZINE, 540-73-8, N-BUTYL-N-(4-HYDRO, Doses [Carcinogen]: 100 MG/KG BW DEN ONCE THEN 20 MG/KG BW MNU 1/D FOR 4 D FOLLOWED BY 40 MG/KG BW DMH 1/D FOR 4 D, 0.05% BHBN IN DRINKING W, Doses [Promoter]: 0, 0.8% IN DIET FOR 24 WK BEGINNING 3 D POST CARCINOGEN TREATMENT (STUDY DURATION: 28 WK), Route [Carcinogen]: INTRAPERITONEAL, INTRAPERITONEAL, SUBCUTANEOUS, ORAL, Route [Carcinogen]: INTRAPERITONEAL, INTRAPERITONEAL, SUBCUTANEOUS, ORAL, Route [Promoter]: ORAL, Species: RAT, Strain/Sex: F344/MALE): forestomach: papilloma, squamous cell carcinoma; glandular stomach: adenoma, ade | outcome (Carcinogen: DIETHYLNITROSAMINE, 55-18-5, N-METHYLNITROSOUREA, 684-93-5, 1,2-DIMETHYLHYDRAZINE, 540-73-8, N-BUTYL-N-(4-HYDROXYBUTYL)N, Carcinogen: DIETHYLNITROSAMINE, 55-18-5, N-METHYLNITROSOUREA, 684-93-5, 1,2-DIMETHYLHYDRAZINE, 540-73-8, N-BUTYL-N-(4-HYDROXYBUTYL)N, Doses [Carcinogen]: 100 MG/KG BW DEN ONCE FOLLOWED BY 20 MG/KG BW MNU 2/WK FOR 2 WK THEN 40 MG/KG BW DMH 2/WK FOR THE NEXT 2WK, 0.05% BBN IN, Doses [Promoter]: 0, 0.16% IN DIET FOR 24 WK BEGINNING POST CARCINOGEN TREATMENT (STUDY DURATION: 28 WK), Route [Carcinogen]: INTRAPERITONEAL, INTRAPERITONEAL, SUBCUTANEOUS, ORAL, Route [Carcinogen]: INTRAPERITONEAL, INTRAPERITONEAL, SUBCUTANEOUS, ORAL, Route [Promoter]: ORAL, Species: RAT, Strain/Sex: F344/MALE): forestomach: papilloma | outcome (Carcinogen: DIETHYLNITROSAMINE, 55-18-5, N-METHYLNITROSOUREA, 684-93-5, DIHYDROXY-DI-N- PROPYLNITROSAMINE, 53609-64-6, Carcinogen: DIETHYLNITROSAMINE, 55-18-5, N-METHYLNITROSOUREA, 684-93-5, DIHYDROXY-DI-N- PROPYLNITROSAMINE, 53609-64-6, Doses [Carcinogen]: 100 MG/KG/BW DEN ONCE AT BEGINNING OF STUDY THEN 20 MG/KG/BW MNU ONCE ON D 2, 5, 8 AND 11 OF STUDY FOLLOWED BY 0.1% DHPN, Doses [Promoter]: 0, 0.8% IN DIET BEGINNING POST CARCINOGEN TREATMENT AND CONTINUING FOR DURATION OF STUDY (STUDY DURATION: 20 WK), Route [Carcinogen]: INTRAPERITONEAL, INTRAPERITONEAL, ORAL, Route [Carcinogen]: INTRAPERITONEAL, INTRAPERITONEAL, ORAL, Route [Promoter]: ORAL, Species: RAT, Strain/Sex: F344/MALE): forestomach: squamous cell papilloma | outcome (Carcinogen: METHYL-N-AMYLNITROSAMINE, 13256-07-0, Doses [Carcinogen]: 25 MG/KG AT WK 0, WK 1, AND WK 2 (TOTAL 3 TREATMENTS), Doses [Promoter]: 0, 0.8% IN DIET FOR 49 WK BEGINNING 1 WK POST CARCINOGEN DOSE (STUDY DURATION: 5 WK), Route [Carcinogen]: INTRAPERITONEAL, Route [Promoter]: ORAL, Species: RAT, Strain/Sex: F344/MALE): tongue: papilloma; esophagus: carcinoma | outcome (Carcinogen: N-METHYL-N'-NITRO-N-NITROSOGUANIDINE, 70-25-7, Doses [Carcinogen]: 150 MG/KG ONCE, Doses [Promoter]: 0, 0.8% IN DIET BEGINNING 1 WK POST CARCINOGEN DOSE (STUDY DURATION: 52 WK), Route [Carcinogen]: GAVAGE, Route [Promoter]: ORAL, Species: RAT, Strain/Sex: F344): forestomach: carcinoma; glandular stomach: adenocarcinoma | outcome (Carcinogen: N-METHYL-N-NITROSOUREA, 684-93-5, Doses [Carcinogen]: 120 PPM IN DRINKING WATER FOR 1-WK PERIODS EVERY OTHER WEEK FOR A TOTAL OF 3 WK OF TREATMENT, Doses [Promoter]: 0, 0.05, 0.2, 0.8% IN DIET FOR 30 WK BEGINNING POST CARCINOGEN TREATMENT (STUDY DURATION: 35 WK), Doses [Promoter]: 0, 0.05, 0.2, 0.8% IN DIET FOR 30 WK BEGINNING POST CARCINOGEN TREATMENT (STUDY DURATION: 35 WK), Route [Carcinogen]: ORAL, Route [Promoter]: ORAL, Species: MOUSE, Strain/Sex: BALB/MALE): glandular stomach: adenoma | outcome (Carcinogen: N-METHYL-N-NITROSOUREA, 684-93-5, Doses [Carcinogen]: 120 PPM IN DRINKING WATER FOR 1-WK PERIODS EVERY OTHER WK FOR A TOTAL OF 3 WK OF TREATMENT, Doses [Promoter]: 0, 0.8% IN DIET FOR 30 WK BEGINNING POST CARCINOGEN TREATMENT (STUDY DURATION: 35 WK), Route [Carcinogen]: ORAL, Route [Promoter]: ORAL, Species: MOUSE, Strain/Sex: BALB/MALE): glandular stomach: adenocarcinoma

CC(C)(C)c1ccc(O)c(O)c1
outcome (Carcinogen: N-METHYL-N'-NITRO-N-NITROSOGUANIDINE, 70-25-7, Doses [Carcinogen]: 150 MG/KG IN DMSO ONCE, Doses [Promoter]: 0, 1.5% IN DIET FOR 51 WK BEGINNING 1 WK AFTER CARCINOGEN DOSE (STUDY DURATION: 52 WK), Route [Carcinogen]: GAVAGE, Route [Promoter]: ORAL, Species: RAT, Strain/Sex: F344/MALE): forestomach: squamous cell carcinoma

CNCCC(Oc1ccc(C(F)(F)F)cc1)c1ccccc1 (centres undefined)
outcome (Carcinogen: 7,12-DIMETHYLBENZ[A]ANTHRACENE, 57-97-6, Doses [Carcinogen]: 20 MG IN 2 ML PEANUT OIL ONCE, Doses [Promoter]: 0, 16 MG/M2 5 D/WK FOR 15 WK BEGINNING POST CARCINOGEN DOSE (STUDY DURATION: 15 WK), Route [Carcinogen]: GAVAGE, Route [Promoter]: INTRAPERITONEAL, Species: RAT, Strain/Sex: SPRAGUE-DAWLEY/FEMALE): mammary gland: tumor | outcome (Carcinogen: 7,12-DIMETHYLBENZ[A]ANTHRACENE, 57-97-6, Doses [Carcinogen]: 20 MG IN 2 ML PEANUT OIL ONCE, Doses [Promoter]: 0, 40 MG/M2 5 D/WK FOR 15 WK BEGINNING POST CARCINOGEN DOSE (STUDY DURATION: 15 WK), Route [Carcinogen]: GAVAGE, Route [Promoter]: INTRAPERITONEAL, Species: RAT, Strain/Sex: SPRAGUE-DAWLEY/FEMALE): mammary gland: tumor

CCC1(CCCCCCCCCCCCC(=O)OC2C(C)C3(O)C(C=C(CO)CC4(O)C(=O)C(C)=CC43)C3C(C)(C)C23OC(C)=O)OCC(C)(C)N1[O] (centres undefined)
outcome [1]: skin: tumor

CC[C@H](C)[C@H](N)C(=O)O
outcome (Carcinogen: N-BUTYL-N-(4-HYDROXYBUTYL)NITROSAMINE, 3817-11-6, Doses [Carcinogen]: 0.05% IN DRINKING WATER FOR 4 WK, Doses [Promoter]: 0, 2% IN DIET BEGINNING POST CARCINOGEN TREATMENT AND CONTINUING FOR DURATION OF STUDY (STUDY DURATION: 40 WK), Route [Carcinogen]: ORAL, Route [Promoter]: ORAL, Species: RAT, Strain/Sex: F344/MALE): bladder: carcinoma

CCCCCCCCCCCCCCCCCC(=O)OCCOC[C@@H](OCCO)[C@H]1OC[C@@H](OCCO)[C@@H]1OCCO
outcome (Carcinogen: 7,12-DIMETHYLBENZ(A)ANTHRACENE, Doses [Carcinogen]: TOP, Route [Carcinogen]: DERMAL, Route [Promoter]: DERMAL, Species: MOUSE, Strain/Sex: MALE): integumentary system (skin)

CC(C)(Oc1ccc(Cl)cc1)C(=O)O
outcome (Carcinogen: Diethylnitrosamine (DEN), 55-18-5, Doses [Carcinogen]: 30 mg/kg, single injection 12 d before initial administration of clofibrate, Doses [Promoter]: 0.5% in diet for up to 12 or 20 mo, Route [Carcinogen]: Intraperitoneal, Route [Promoter]: Oral, Species: Rat, Strain/Sex: F344/Male (175 divided into 4 groups, Vehicle control, DEN, DEN + clofibrate, and clofibrate)): liver: den injection accelerated the appearance of tumors without detectably mod

CCCCCCCCCCCC(=O)O
outcome (Carcinogen: 7,12-DIMETHYLBENZ(A)ANTHRACENE, Doses [Carcinogen]: TOP, Route [Carcinogen]: DERMAL, Route [Promoter]: DERMAL, Species: MOUSE, Strain/Sex: MALE,FEMALE): integumentary system (skin)

C[C@H](N)[C@H](O)c1cccc(O)c1
outcome (Carcinogen: N-METHYL-N'-NITRO-N-NITROSOGUANADINE, 70-25-7, Doses [Carcinogen]: 25 UG/ML IN DRINKING WATER FOR 20 WK, Doses [Promoter]: 0, 5 MG/KG BW IN OLIVE OIL 1/2 D BEGINNING POST CARCINOGEN TREATMENT (STUDY DURATION: 52 WK), Route [Carcinogen]: ORAL, Route [Promoter]: SUBCUTANEOUS, Species: RAT, Strain/Sex: WISTAR/MALE): stomach: adenocarcinoma

CC(C)C[C@H](NC(=O)[C@H](Cc1ccccc1)NC(=O)CNC(=O)CNC(=O)[C@@H](N)Cc1ccc(O)cc1)C(=O)O
outcome (Carcinogen: N-METHYL-N'-NITRO-N-NITROSOGUANIDINE, 70-25-7, Doses [Carcinogen]: 25 UG/ML IN DRINKING WATER FOR 25 WK, Doses [Promoter]: 0, 20 UG/KG 1/2 D BEGINNING POST CARCINOGEN TREATMENT AND CONTINUING FOR THE DURATION OF STUDY (STUDY DURATION: 52 WK), Route [Carcinogen]: ORAL, Route [Promoter]: SUBCUTANEOUS, Species: RAT, Strain/Sex: WISTAR/MALE): stomach: adenocarcinoma

CCCCCCCCCCC(C)C1(CCC(=O)OC2C(C)C3(O)C(C=C(CO)CC4(O)C(=O)C(C)=CC43)C3C(C)(C)C23OC(C)=O)OCC(C)(C)N1[O] (centres undefined)
outcome [1]: skin: tumor

CCC(CC)C(=O)NC(N)=O
outcome (Carcinogen: N-NITROSODIETHYLAMINE, 55-18-5, Doses [Carcinogen]: 75 MG IN STERILE SALINE ONCE, Doses [Promoter]: 0, 341 PPM IN DIET BEGINNING 2 WK POST CARCINOGEN DOSE AND CONTINUING FOR DURATION OF STUDY (STUDY DURATION: 78 WK), Route [Carcinogen]: INTRAPERITONEAL, Route [Promoter]: ORAL, Species: RAT, Strain/Sex: F344/MALE): liver: hepatocellular adenoma; kidney: renal tubular cell adenoma or carcinoma
